Measured values taken from ChEMBL document CHEMBL4359915, “Design, synthesis and biological evaluation of novel diazaspiro[4.5]decan-1-one derivatives as potential chitin synthase inhibitors and antifungal agents” (Eur J Med Chem, 2019).
Values after ≈ are worked out from the molar mass of the structure shown.

How the values were obtained:
Candida tropicalis = assay: Inhibition of Candida tropicalis ATCC 750 chitin synthase at 300 ug/ml using UDP-GlcNAc as substrate relative to control
Candida albicans [1] = assay: Antifungal activity against Candida albicans ATCC 76615 assessed as growth inhibition measured after 24 hrs by two-fold broth dilution method; assay type: functional; details: ATCC 76615, 24 h
Aspergillus fumigatus = assay: Antifungal activity against Aspergillus fumigatus GIMCC 3.19 assessed as growth inhibition measured after 24 hrs by two-fold broth dilution method; assay type: functional; details: GIMCC 3.19, 24 h
Candida albicans [2] = assay: Antifungal activity against Candida albicans ATCC 90023 assessed as growth inhibition measured after 24 hrs by two-fold broth dilution method; assay type: functional; details: ATCC 90023, 24 h
Cryptococcus neoformans = assay: Antifungal activity against Cryptococcus neoformans ATCC 32719 assessed as growth inhibition measured after 24 hrs by two-fold broth dilution method; assay type: functional; details: ATCC 32719, 24 h
Aspergillus flavus = assay: Antifungal activity against Aspergillus flavus ATCC 16870 assessed as growth inhibition measured after 24 hrs by two-fold broth dilution method; assay type: functional; details: ATCC 16870, 24 h
Staphylococcus aureus [3] = assay: Antibacterial activity against methicillin-resistant Staphylococcus aureus N315 assessed as growth inhibition measured after 24 hrs by two-fold broth dilution method; assay type: functional; details: N315, 24 h
Staphylococcus aureus [4] = assay: Antibacterial activity against Staphylococcus aureus ATCC 25923 assessed as growth inhibition measured after 24 hrs by two-fold broth dilution method; assay type: functional; details: ATCC 25923, 24 h
Bacillus spizizenii = assay: Antibacterial activity against Bacillus subtilis ATCC 6633 assessed as growth inhibition measured after 24 hrs by two-fold broth dilution method; assay type: functional; details: ATCC 6633, 24 h
Escherichia coli = assay: Antibacterial activity against Escherichia coli JM 109 assessed as growth inhibition measured after 24 hrs by two-fold broth dilution method; assay type: functional; details: JM 109, 24 h
Pseudomonas aeruginosa = assay: Antibacterial activity against Pseudomonas aeruginosa ATCC 9027 assessed as growth inhibition measured after 24 hrs by two-fold broth dilution method; assay type: functional; details: ATCC 9027, 24 h
Proteus vulgaris = assay: Antibacterial activity against Bacillus proteus ATCC 8427 assessed as growth inhibition measured after 24 hrs by two-fold broth dilution method; assay type: functional; details: ATCC 8427, 24 h
[5] = Inhibition of Candida tropicalis ATCC 750 chitin synthase using UDP-GlcNAc as substrate

| SMILES | inhibition (Candida tropicalis) | MIC (Candida albicans [1]) | MIC (Aspergillus fumigatus) | MIC (Candida albicans [2]) | MIC (Cryptococcus neoformans) | MIC (Aspergillus flavus) | MIC (Staphylococcus aureus [3]) | MIC (Staphylococcus aureus [4]) | MIC (Bacillus spizizenii) | MIC (Escherichia coli) | MIC (Pseudomonas aeruginosa) | MIC (Proteus vulgaris) | IC50 [5] |
| --- | --- | --- | --- | --- | --- | --- | --- | --- | --- | --- | --- | --- | --- |
| O=C(Nc1ccccc1F)[C@H](O)[C@@H](O)C(=O)N1CCC2(CCNC2=O)CC1 | 23.1% | 340 µM (≈ 129 µg/mL) | 670 µM (≈ 254 µg/mL) | 670 µM (≈ 254 µg/mL) | 670 µM (≈ 254 µg/mL) | 340 µM (≈ 129 µg/mL) | 340 µM (≈ 129 µg/mL) | 340 µM (≈ 129 µg/mL) | 670 µM (≈ 254 µg/mL) | 670 µM (≈ 254 µg/mL) | 1350 µM (≈ 512 µg/mL) | 670 µM (≈ 254 µg/mL) |  |
| Cc1ccc(NC(=O)[C@H](O)[C@@H](O)C(=O)N2CCC3(CCNC3=O)CC2)cc1 | 48.7% | 340 µM (≈ 128 µg/mL) | 680 µM (≈ 255 µg/mL) | 680 µM (≈ 255 µg/mL) | 340 µM (≈ 128 µg/mL) | 170 µM (≈ 63.8 µg/mL) | 340 µM (≈ 128 µg/mL) | 170 µM (≈ 63.8 µg/mL) | 680 µM (≈ 255 µg/mL) | 340 µM (≈ 128 µg/mL) | 170 µM (≈ 63.8 µg/mL) | 680 µM (≈ 255 µg/mL) |  |
| NC(=O)OC[C@H](O)[C@@H](O)[C@H](N)C(=O)N[C@H](C(=O)O)[C@H]1O[C@@H](n2cc(CO)c(=O)[nH]c2=O)[C@H](O)[C@@H]1O [POLYOXIN B] | 85% | 32 µM (≈ 16.2 µg/mL) | 32 µM (≈ 16.2 µg/mL) | 129 µM (≈ 65.5 µg/mL) | 64 µM (≈ 32.5 µg/mL) | 32 µM (≈ 16.2 µg/mL) |  |  |  |  |  |  | 80 µM |
| O=C(Nc1cccc(C(F)(F)F)c1)[C@H](O)[C@@H](O)C(=O)N1CCC2(CCNC2=O)CC1 | 47.1% | 300 µM (≈ 129 µg/mL) | 600 µM (≈ 258 µg/mL) | 300 µM (≈ 129 µg/mL) | 70 µM (≈ 30.1 µg/mL) | 60 µM (≈ 25.8 µg/mL) | 300 µM (≈ 129 µg/mL) | 300 µM (≈ 129 µg/mL) | 150 µM (≈ 64.4 µg/mL) | 150 µM (≈ 64.4 µg/mL) | 300 µM (≈ 129 µg/mL) | 150 µM (≈ 64.4 µg/mL) |  |
| C[C@H]1COc2c(N3CCN(C)CC3)c(F)cc3c(=O)c(C(=O)O)cn1c23 [LEVOFLOXACIN] |  |  |  |  |  |  | 11 µM (≈ 3.98 µg/mL) | 22 µM (≈ 7.95 µg/mL) | 11 µM (≈ 3.98 µg/mL) | 11 µM (≈ 3.98 µg/mL) | 3 µM (≈ 1.08 µg/mL) | 5 µM (≈ 1.81 µg/mL) |  |
| O=C(Nc1ccccc1)[C@H](O)[C@@H](O)C(=O)N1CCC2(CCNC2=O)CC1 | 1.8% | 710 µM (≈ 257 µg/mL) | 1420 µM (≈ 513 µg/mL) | 710 µM (≈ 257 µg/mL) | 710 µM (≈ 257 µg/mL) | 1420 µM (≈ 513 µg/mL) | 710 µM (≈ 257 µg/mL) | 1420 µM (≈ 513 µg/mL) | 710 µM (≈ 257 µg/mL) | 710 µM (≈ 257 µg/mL) | 710 µM (≈ 257 µg/mL) | 1420 µM (≈ 513 µg/mL) |  |
| O=C(Nc1ccc(F)cc1F)[C@H](O)[C@@H](O)C(=O)N1CCC2(CCNC2=O)CC1 | 65.2% | 640 µM (≈ 254 µg/mL) | 80 µM (≈ 31.8 µg/mL) | 320 µM (≈ 127 µg/mL) | 640 µM (≈ 254 µg/mL) | 320 µM (≈ 127 µg/mL) | 80 µM (≈ 31.8 µg/mL) | 320 µM (≈ 127 µg/mL) | 160 µM (≈ 63.6 µg/mL) | 320 µM (≈ 127 µg/mL) | 320 µM (≈ 127 µg/mL) | 160 µM (≈ 63.6 µg/mL) | 290 µM |
| Cc1ccccc1NC(=O)[C@H](O)[C@@H](O)C(=O)N1CCC2(CCNC2=O)CC1 | 49.8% | 1360 µM (≈ 511 µg/mL) | 340 µM (≈ 128 µg/mL) | 170 µM (≈ 63.8 µg/mL) | 680 µM (≈ 255 µg/mL) | 1360 µM (≈ 511 µg/mL) | 680 µM (≈ 255 µg/mL) | 680 µM (≈ 255 µg/mL) | 340 µM (≈ 128 µg/mL) | 680 µM (≈ 255 µg/mL) | 340 µM (≈ 128 µg/mL) | 680 µM (≈ 255 µg/mL) |  |
| O=C(Nc1cccc(Br)c1)[C@H](O)[C@@H](O)C(=O)N1CCC2(CCNC2=O)CC1 | 79.4% | 290 µM (≈ 128 µg/mL) | 1160 µM (≈ 511 µg/mL) | 580 µM (≈ 255 µg/mL) | 290 µM (≈ 128 µg/mL) | 280 µM (≈ 123 µg/mL) | 290 µM (≈ 128 µg/mL) | 290 µM (≈ 128 µg/mL) | 1160 µM (≈ 511 µg/mL) | 580 µM (≈ 255 µg/mL) | 580 µM (≈ 255 µg/mL) | 290 µM (≈ 128 µg/mL) | 150 µM |
